The numbers were not newly measured in patent US20210236583A1, “Targeting the renin-angiotensin system for treatment of environment-and pathogen-induced lung injury” (priority 2020, published 2021), which cites them from elsewhere.

For the data set, the system named is mice. The settings on record: direct injection of recombinant ACE2 protein.

In the case of “recombinant ACE2 protein: recombinant ACE2 protein injected directly, from the literature (Imai et al., 2005)”, the “protection from severe acute lung injury” value is listed as “protect mice from severe acute lung injury”.
